The target of one test is T1, CDK9/CycT1 (Homo sapiens, UniProt P50750).
T1 construct: Recombinant full-length His-tagged human CDK9 and CycT1; purchased Life Technologies PV4131; host or cells: insect cells
Put plainly: CDK9/CycT1 high ATP kinase assay (TR-FRET, 2 mM ATP). Conditions: 2 mM ATP (high ATP); median; read-out: CDK9/CyclinT1, 2 mM ATP (high ATP), IC50 (median). It counts as biochemical. In short, it runs like this: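 Full-length His-tagged human CDK9/CycT1 (insect cell, ~0.5 μg/mL) preincubated 15 min at 22 °C with compound in Tris pH 8.0, MgCl2, DTT buffer before reaction with biotinylated peptide substrate at high ATP (2 mM).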
A general note: Time-resolved FRET reads energy transfer from a long-lived donor to a nearby acceptor.

The target of another test is CDK12/CycK (Homo sapiens, UniProt Q9NYV4). Put plainly: CDK12/CycK high ATP kinase assay (TR-FRET, 2 mM ATP). The class given is biochemical. Conditions: 2 mM ATP (high ATP); median; read-out: CDK12/CyclinK, 2 mM ATP (high ATP), IC50-[mol/l] (median). The method, boiled down: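 Read-out is TR-FRET (Eu-anti-rabbit IgG, anti-phospho-c-Myc Ser62 antibody, streptavidin-XL665) after EDTA stop. Reaction ran 60 min at 22 °C using 1 µM biotin-peptide and high ATP (2 mM) with roughly 0.75 nM recombinant CDK12/CycK, after 15 min compound pre-binding; normalised emission ratios yield IC50.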
Chain of CDK12/CycK (Q9NYV4 with tags, fused parts or gaps): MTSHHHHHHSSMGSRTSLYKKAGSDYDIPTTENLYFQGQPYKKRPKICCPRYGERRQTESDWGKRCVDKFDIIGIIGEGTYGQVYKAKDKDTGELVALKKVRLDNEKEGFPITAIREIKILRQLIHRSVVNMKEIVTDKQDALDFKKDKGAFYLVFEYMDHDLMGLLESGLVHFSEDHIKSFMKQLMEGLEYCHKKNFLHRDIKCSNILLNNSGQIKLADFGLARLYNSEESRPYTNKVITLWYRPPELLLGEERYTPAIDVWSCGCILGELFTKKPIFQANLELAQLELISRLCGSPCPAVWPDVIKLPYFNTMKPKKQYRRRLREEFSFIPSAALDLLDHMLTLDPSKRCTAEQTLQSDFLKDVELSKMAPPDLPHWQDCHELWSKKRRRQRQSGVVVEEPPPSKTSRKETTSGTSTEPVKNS
Chain of CDK12/CycK (O75909 1-300 partner limits assumed): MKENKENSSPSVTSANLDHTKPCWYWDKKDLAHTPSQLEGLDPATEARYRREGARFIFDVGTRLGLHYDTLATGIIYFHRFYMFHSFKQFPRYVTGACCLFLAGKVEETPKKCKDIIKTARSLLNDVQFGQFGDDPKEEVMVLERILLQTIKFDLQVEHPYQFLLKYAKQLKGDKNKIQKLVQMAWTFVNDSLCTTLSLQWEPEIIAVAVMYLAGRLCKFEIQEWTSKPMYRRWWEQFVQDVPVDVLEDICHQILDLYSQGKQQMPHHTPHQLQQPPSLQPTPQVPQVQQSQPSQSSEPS

T1 sequence (P50750 whole entry): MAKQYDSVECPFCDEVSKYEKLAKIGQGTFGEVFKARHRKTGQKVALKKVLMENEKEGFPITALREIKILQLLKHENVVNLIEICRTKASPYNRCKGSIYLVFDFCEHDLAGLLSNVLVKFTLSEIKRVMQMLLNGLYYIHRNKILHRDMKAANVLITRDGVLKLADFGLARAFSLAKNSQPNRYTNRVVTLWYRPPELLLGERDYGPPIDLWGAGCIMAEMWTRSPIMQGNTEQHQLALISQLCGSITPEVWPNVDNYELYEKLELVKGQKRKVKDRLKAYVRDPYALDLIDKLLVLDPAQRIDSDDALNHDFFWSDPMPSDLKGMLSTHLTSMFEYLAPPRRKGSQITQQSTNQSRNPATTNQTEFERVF
T1 sequence (O60563 whole entry partner): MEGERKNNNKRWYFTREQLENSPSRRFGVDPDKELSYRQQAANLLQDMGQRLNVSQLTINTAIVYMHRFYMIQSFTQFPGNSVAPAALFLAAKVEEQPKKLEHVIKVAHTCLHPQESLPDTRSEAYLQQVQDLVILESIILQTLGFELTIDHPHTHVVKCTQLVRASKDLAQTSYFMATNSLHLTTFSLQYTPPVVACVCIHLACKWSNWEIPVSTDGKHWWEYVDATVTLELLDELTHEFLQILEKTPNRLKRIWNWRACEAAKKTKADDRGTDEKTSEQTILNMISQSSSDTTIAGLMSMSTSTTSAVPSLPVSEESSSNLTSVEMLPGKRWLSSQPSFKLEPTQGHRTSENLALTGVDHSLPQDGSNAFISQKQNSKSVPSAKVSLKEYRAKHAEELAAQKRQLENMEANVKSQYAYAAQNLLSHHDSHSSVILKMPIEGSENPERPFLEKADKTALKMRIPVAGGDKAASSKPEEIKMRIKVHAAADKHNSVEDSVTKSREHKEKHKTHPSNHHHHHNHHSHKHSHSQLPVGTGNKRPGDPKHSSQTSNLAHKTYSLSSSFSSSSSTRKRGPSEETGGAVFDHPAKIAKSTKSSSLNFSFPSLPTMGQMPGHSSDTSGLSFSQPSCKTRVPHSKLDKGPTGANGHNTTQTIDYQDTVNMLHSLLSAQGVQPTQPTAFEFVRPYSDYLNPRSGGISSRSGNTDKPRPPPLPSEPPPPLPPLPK

For the molecule `CC1(O)CCN(c2nc(NCc3nc4ccccc4[nH]3)n3ncc(Br)c3n2)C1` (stereo not shown) [Example 225, 1-[4-(1H-benzimidazol-2-ylmethylamino)-8-bromo-pyrazolo[1,5-a][1,3,5]triazin-2-yl]-3-methyl-pyrrolidin-3-ol], the IC50 on CDK9/CycT1 is above 20 µM; on CDK12/CycK it was 10.3 µM.

As to `Cc1ccc2[nH]c(CNc3nc(N4C[C@@H]5CCCN[C@@H]5C4)nc4c(Br)cnn34)nc2c1` [Example 203, 8-bromo-N-[(5-methyl-1H-benzimidazol-2-yl)methyl]-2-[(4aS, 7aS)-octahydro-6H-pyrrolo[3,4-b]pyridin-6-yl]pyrazolo[1,5-a][1,3,5]triazin-4-amine], the results for the IC50 on CDK9/CycT1 and at CDK12/CycK were above 20 µM and 8.8 µM, respectively.

Consider `CCNc1nc(NCc2nc3ccccc3[nH]2)n2ncc(Br)c2n1` [Example 227, N4-(1H-benzimidazol-2-ylmethyl)-8-bromo-N2-ethyl-pyrazolo[1,5-a][1,3,5]triazine-2,4-diamine], for which the IC50 at CDK9/CycT1 is above 20 µM; on CDK12/CycK, 9.51 µM.

Regarding `CN1CC2CN(c3nc(NCc4nc5ccccc5[nH]4)n4ncc(Br)c4n3)CC2C1` (stereo not shown) [Example 240, N-(1H-benzimidazol-2-ylmethyl)-8-bromo-2-(2-methyl-1,3,3a,4,6,6a-hexahydropyrrolo[3,4-c]pyrrol-5-yl)pyrazolo[1,5-a][1,3,5]triazin-4-amine], the IC50 at CDK9/CycT1 and on CDK12/CycK was above 20 µM in each case.

Regarding `Fc1ccc2[nH]c(CNc3nc(N4C[C@@H]5C[C@H]4CO5)nc4c(C5CC5)cnn34)nc2c1F` [Example 173, 8-cyclopropyl-N-[(4,5-difluoro-1H-benzimidazol-2-yl)methyl]-2-[(1S,4S)-2-oxa-5-azabicyclo[2.2.1]heptan-5-yl]pyrazolo[1,5-a][1,3,5]triazin-4-amine], the IC50 at CDK9/CycT1 and on CDK12/CycK was above 20 µM in each case.

As to `COc1cccc2[nH]c(CNc3nc(N4CCOCC4)nc4c(C5CC5)cnn34)nc12` [Example 213, 8-cyclopropyl-N-[(4-methoxy-1H-benzimidazol-2-yl)methyl]-2-morpholino-pyrazolo[1,5-a][1,3,5]triazin-4-amine], the IC50 on CDK9/CycT1 was above 20 µM; at CDK12/CycK, 1.05 µM.

Turning to `CC(C)(O)CNc1nc(NCc2nc3ccccc3[nH]2)n2ncc(Br)c2n1` [Example 229, 1-[(4-{[(1H-benzimidazol-2-yl)methyl]amino}-8-bromopyrazolo[1,5-a][1,3,5]triazin-2-yl)amino]-2-methylpropan-2-ol], the IC50 at CDK9/CycT1 is above 20 µM; on CDK12/CycK it was 5.51 µM.

As to `COc1ccc2[nH]c(CNc3nc(N4C[C@@H](C)N[C@@H](C)C4)nc4c(Br)cnn34)nc2c1` [Example 205, 8-bromo-2-[(3R,5S)-3,5-dimethylpiperazin-1-yl]-N-[(5-methoxy-1 H-benzimidazol-2-yl)methyl]pyrazolo[1,5-a][1,3,5]triazin-4-amine], the IC50 on CDK9/CycT1 was above 20 µM; on CDK12/CycK, 7.97 µM.

For `Fc1cccc2[nH]c(CNc3nc(N4C[C@@H]5C[C@H]4CO5)nc4c(C5CC5)cnn34)nc12` [Example 183, 8-cyclopropyl-N-[(4-fluoro-1H-benzimidazol-2-yl)methyl]-2-[(1S,4S)-2-oxa-5-azabicyclo[2.2.1]heptan-5-yl]pyrazolo[1,5-a][1,3,5]triazin-4-amine], the IC50 on CDK9/CycT1 is above 20 µM; on CDK12/CycK, 10.2 µM.

For the molecule `COCCNc1nc(NCc2nc3ccccc3[nH]2)n2ncc(Br)c2n1` [Example 230, N4-(1H-benzimidazol-2-ylmethyl)-8-bromo-N2-(2-methoxyethyl)pyrazolo[1,5-a][1,3,5]triazine-2,4-diamine], the IC50 on CDK9/CycT1 and at CDK12/CycK was above 20 µM each time.

As to `CN(CCO)c1nc(NCc2nc3ccccc3[nH]2)n2ncc(Br)c2n1` [Example 237, 2-[(4-{[(1H-benzimidazol-2-yl)methyl]amino}-8-bromopyrazolo[1,5-a][1,3,5]triazin-2-yl)(methyl)amino]ethan-1-ol], the IC50 on CDK9/CycT1 was above 20 µM; at CDK12/CycK, 7.35 µM.

Regarding `C[C@@H]1CN(c2nc(NCc3nc4ccccc4[nH]3)n3ncc(Br)c3n2)CCN1` [Example 168, N-[(1H-benzimidazol-2-yl)methyl]-8-bromo-2-[(3R)-3-methylpiperazin-1-yl]pyrazolo[1,5-a][1,3,5]triazin-4-amine], the IC50 at CDK9/CycT1 was above 20 µM; on CDK12/CycK, 5.78 µM.

For `C[C@@H]1CN(c2nc(NCc3nc4c(F)c(F)ccc4[nH]3)n3ncc(C4CC4)c3n2)C[C@H](C)N1` [Example 170, 8-cyclopropyl-N-[(4,5-difluoro-1H-benzimidazol-2-yl)methyl]-2-[(3R,5S)-3,5-dimethylpiperazin-1-yl]pyrazolo[1,5-a][1,3,5]triazin-4-amine], the IC50 on CDK9/CycT1 is above 20 µM; at CDK12/CycK, 3.04 µM.

In the case of `CN(CCN1CCCC1)c1nc(NCc2nc3ccccc3[nH]2)n2ncc(Br)c2n1` [Example 239, N4-(1H-benzimidazol-2-ylmethyl)-8-bromo-N2-methyl-N2-(2-pyrrolidin-1-ylethyl)pyrazolo[1,5-a][1,3,5]triazine-2,4-diamine], the IC50 on CDK9/CycT1 and at CDK12/CycK was above 20 µM in each case.

Consider `CO[C@H]1CCN(c2nc(NCc3nc4ccccc4[nH]3)n3ncc(Br)c3n2)C1` [Example 222, N-[(1H-benzimidazol-2-yl)methyl]-8-bromo-2-[(3S)-3-methoxypyrrolidin-1-yl]pyrazolo[1,5-a][1,3,5]triazin-4-amine], for which the values for the IC50 on CDK9/CycT1 and at CDK12/CycK were above 20 µM and 6.01 µM, respectively.

Take `Cc1ccc2[nH]c(CNc3nc(N4C[C@H]5C[C@@H]4CO5)nc4c(C5CC5)cnn34)nc2c1` [Example 196, 8-cyclopropyl-N-[(5-methyl-1H-benzimidazol-2-yl)methyl]-2-[(1R,4R)-2-oxa-5-azabicyclo[2.2.1]heptan-5-yl]pyrazolo[1,5-a][1,3,5]triazin-4-amine]: the IC50 on CDK9/CycT1 was above 20 µM; on CDK12/CycK it was 15.4 µM.

Take `Fc1cccc2[nH]c(CNc3nc(N4CCOCC4)nc4c(C5CC5)cnn34)nc12` [Example 188, 8-cyclopropyl-N-[(4-fluoro-1H-benzimidazol-2-yl)methyl]-2-(morpholin-4-yl)pyrazolo[1,5-a][1,3,5]triazin-4-amine]: the IC50 on CDK9/CycT1 was above 20 µM; on CDK12/CycK, 0.581 µM.

For the molecule `OC1CCN(c2nc(NCc3nc4ccccc4[nH]3)n3ncc(Br)c3n2)CC1` [Example 17, 1-(4-{[(1H-benzimidazol-2-yl)methyl]amino}-8-bromopyrazolo[1,5-a][1,3,5]triazin-2-yl)piperidin-4-ol], the IC50 is above 20 µM on CDK9/CycT1 and 5.72 µM on CDK12/CycK.

Turning to `CC(C)c1cnn2c(NCc3nc4ccccc4[nH]3)nc(Nc3ccncc3)nc12` [Example 14, N^4-[(1H-benzimidazol-2-yl)methyl]-8-(propan-2-yl)-N^2-(pyridin-4-yl)pyrazolo[1,5-a][1,3,5]triazine-2,4-diamine], the IC50 is above 20 µM on CDK9/CycT1 and above 16.4 µM on CDK12/CycK.

For the molecule `CN1CC[C@@H]2CN(c3nc(NCc4nc5ccccc5[nH]4)n4ncc(Br)c4n3)C[C@@H]21` [Example 217, N-[(1H-benzimidazol-2-yl)methyl]-8-bromo-2-[(3aR,6aR)-1-methylhexahydropyrrolo[3,4-b]pyrrol-5 (1H)-yl]pyrazolo[1,5-a][1,3,5]triazin-4-amine], the IC50 on CDK9/CycT1 and at CDK12/CycK was above 20 µM each time.

For the origin of these results see US20230117034A1, “PYRAZOLOTRIAZINES” (Bayer Aktiengesellschaft, priority 2019, published 2023).
